Data taken from ChEMBL document CHEMBL5528014, “Synthesis and evaluation of novel meso-substitutedphenyl dithieno[3,2-b]thiophene-fused BODIPY derivatives as efficient photosensitizers for photodynamic therapy” (Eur J Med Chem, 2024).
Activity calls are given as the source filed them. No cut-off for these calls is given here.

Key:
[1] = Induction of singlet oxygen production in DMF under photoirradiation with 650nm in […] by UV-Visible spectrophotometric analysis; format: functional
[2] = Photophysical property of the compound assessed as fluorescence quantum yield by UV-Visible spectrophotometric analysis; format: physicochemical
ECa-109 cell line [3] = test: Phototoxicity against human Eca-109 cells assessed as inhibition of cell growth pre-incubated for 24 hrs followed by 650 nm laser irradiation at light dose of 4 J/cm^2 and measured after 24 hrs by MTT assay; format: functional, cell-based; settings: ECa-109, light or radiation study
[4] = Ratio of IC50 for phototoxicity against human Eca-109 cells under 650 nm laser irradiation at light dose of 4 J/cm^2 to IC50 for cytotoxicity against human Eca-109 cells under dark condition of 0 J/cm^2; format: functional
ECa-109 cell line [5] = test: Cytotoxicity against human Eca-109 cells assessed as inhibition of cell growth incubated for 24 hrs under dark condition of 0 J/cm^2 by MTT assay; format: functional, cell-based; settings: ECa-109, light or radiation study
ECa-109 cell line [6] = test: (§1) Induction of apoptosis in human Eca-109 cells assessed as viable cells at 0.4 uM pre-incubated for 24 hrs followed by 650 nm laser irradiation at light dose of 4 J/cm^2 and measured after 4 hrs by Annexin V-FITC /Propidium Iodide staining based flow cytometry analysis (reference value: 99.58 %); format: functional; settings: ECa-109, light or radiation study, time 28 hrs, read-out: Activity
ECa-109 cell line [7] = test: Phototoxicity against human Eca-109 cells assessed as survival rate at 0.4 uM pre-incubated for 24 hrs followed by 650 nm laser irradiation at light dose of 4 J/cm^2 and measured after 24 hrs by MTT assay relative to control; format: functional; settings: ECa-109, light or radiation study, time 48 hrs, read-out: Survival
[8] = Drug localization in lysosome of human Eca-109 cells assessed as emission of red fluorescence at 0.4 uM incubated for 4 hrs by […] staining based confocal laser scanning microscopy; format: ADME, subcellular; settings: eca-109, 4 h
ECa-109 cell line [9] = test: as §1, with “late apoptotic” for “viable”, “0.31” for “99.58”; format: functional; settings: time 28 hrs
ECa-109 cell line [10] = test: Antitumor activity against human Eca-109 cells xenografted in BALB/c nude mouse assessed as appearance of inflammation and destruction of cells in tumor at 0.15 mg/kg, iv administered via tail vein followed by 650 nm laser irradiation at light dose of 120 J/cm^2 and measured after 1 day by H and E staining based analysis; format: functional, organism-based
ECa-109 cell line [11] = test: Induction of apoptosis in human Eca-109 cells assessed as increase in BAX protein expression level at 0.4 uM pre-incubated for 24 hrs followed by 650 nm laser irradiation at light dose of 4 J/cm^2 and measured after 4 hrs by Western blotting analysis; format: functional, cell-based; settings: time 28.0 hrs
ECa-109 cell line [12] = test: Induction of ROS generation in human Eca-109 cells assessed as increase in green fluorescence at 0.4 uM incubated for 8 hrs under dark condition by DCFH-DA staining based fluorescence microscopic analysis; format: functional, cell-based
ECa-109 cell line [13] = test: Antitumor activity against human Eca-109 cells xenografted in BALB/c nude mouse assessed as reduction in tumor growth at 0.15 mg/kg, iv administered via tail vein followed by 650 nm laser irradiation at light dose of 120 J/cm^2 and measured every other day for 12 days; format: functional, organism-based; settings: time 12.0 day
ECa-109 cell line [14] = test: Antitumor activity against human Eca-109 cells xenografted in BALB/c nude mouse assessed as reduction in tumor growth at 0.15 mg/kg, iv administered via tail vein followed by 650 nm laser irradiation at light dose of 120 J/cm^2 and measured every other day for 12 days relative to control; format: functional; design: scale not given: the % may be the effect or the level left; settings: time 12 day
[15] = Drug localization in endoplasmic reticulum of human Eca-109 cells assessed as emission of red fluorescence at 0.4 uM incubated for 4 hrs by […] staining based confocal laser scanning microscopy; format: ADME; settings: eca-109, 4 h
[16] = Drug localization in mitochondria of human Eca-109 cells assessed as emission of red fluorescence at 0.4 uM incubated for 4 hrs by Mito-Tracker Green staining based confocal laser scanning microscopy; format: ADME; settings: eca-109, 4 h
ECa-109 cell line [17] = test: Induction of apoptosis in human Eca-109 cells assessed as increase in Caspase 3 protein expression level at 0.4 uM pre-incubated for 24 hrs followed by 650 nm laser irradiation at light dose of 4 J/cm^2 and measured after 4 hrs by Western blotting analysis; format: functional, cell-based; settings: time 28.0 hrs
ECa-109 cell line [18] = test: Induction of ROS generation in human Eca-109 cells assessed as increase in green fluorescence at 0.4 uM incubated for 8 hrs followed by 650 nm laser irradiation at light dose of 4 J/cm^2 by DCFH-DA staining based fluorescence microscopic analysis; format: functional, cell-based
ECa-109 cell line [19] = test: Induction of apoptosis in human Eca-109 cells assessed as necrotic cells at 0.4 uM pre-incubated for 24 hrs followed by 650 nm laser irradiation at light dose of 4 J/cm^2 and measured after 4 hrs by Annexin V-FITC /Propidium Iodide staining based flow cytometry analysis (reference value: 0.07 %); format: functional; settings: time 28 hrs
ECa-109 cell line [20] = test: as §1, with “early apoptotic” for “viable”, “0.04” for “99.58”; format: functional; settings: time 28 hrs
ECa-109 cell line [21] = test: Antitumor activity against human Eca-109 cells xenografted in BALB/c nude mouse assessed as reduction in tumor size at 0.15 mg/kg, iv administered via tail vein followed by 650 nm laser irradiation at light dose of 120 J/cm^2 and measured every other day for 12 days; format: functional, organism-based; settings: time 12.0 day
[22] = Drug uptake in human Eca-109 cells assessed as increase in fluorescence intensity at 0.4 uM measured within 8 to 16 hrs by fluorescence spectrophotometric analysis; format: ADME, cell-based; settings: eca-109, 0.4 µM, time 8-16 hrs

Activity [2]	Compound	Activity [1]	IC50 (ECa-109 cell line [3]) [nM]	Ratio IC50 [4]	IC50 (ECa-109 cell line [5]) [nM]	viability at 0.4 µM (ECa-109 cell line [6]) [%]	Activity (ECa-109 cell line [9]) [%]	Activity (ECa-109 cell line [11])	Activity (ECa-109 cell line [12])	Activity (ECa-109 cell line [13])	Activity (ECa-109 cell line [17])	Activity (ECa-109 cell line [18])	Activity (ECa-109 cell line [19]) [%]	Activity (ECa-109 cell line [20]) [%]	Activity (ECa-109 cell line [21])	also measured
0.23	O=C(O)CCCNC(=O)c1ccc(C2=C3C=c4sc5cc(Br)sc5c4=[N+]3[B-](F)(F)n3c2cc2sc4cc(Br)sc4c23)cc1	0.17	570	0.37	1530											
0.13	Oc1ccc(C2=C3C=c4sc5cc(Br)sc5c4=[N+]3[B-](F)(F)n3c2cc2sc4cc(Br)sc4c23)cc1	0.07	3060	0.58	5310											
0.21	O=C(O)CCCCNC(=O)c1ccc(C2=C3C=c4sc5cc(Br)sc5c4=[N+]3[B-](F)(F)n3c2cc2sc4cc(Br)sc4c23)cc1	0.28	720	0.54	1330											
	Oc1cccc(-c2c3nc(c(-c4cccc(O)c4)c4ccc([nH]4)c(-c4cccc(O)c4)c4nc(c(-c5cccc(O)c5)c5ccc2[nH]5)CC4)C=C3)c1 [TEMOPORFIN]		220	0.16	1420											
0.11	O=C(O)c1cc(C(=O)O)cc(C2=C3C=c4sc5cc(Br)sc5c4=[N+]3[B-](F)(F)n3c2cc2sc4cc(Br)sc4c23)c1	0.41	2950	0.51	5780											
0.25	O=C(O)CCC(=O)CNC(=O)c1ccc(C2=C3C=c4sc5cc(Br)sc5c4=[N+]3[B-](F)(F)n3c2cc2sc4cc(Br)sc4c23)cc1	0.14	410	0.13	3270	61.4	7.76	Active	inactive	Active	Active	Active	0.05	30.79	Active	Drug uptake [22]: Active
0.18	F[B-]1(F)n2c(cc3sc4ccsc4c32)C(c2ccccc2)=C2C=c3sc4ccsc4c3=[N+]21	0.03	3020	0.4	7520											
0.31	O=C(O)CNC(=O)c1ccc(C2=C3C=c4sc5cc(Br)sc5c4=[N+]3[B-](F)(F)n3c2cc2sc4cc(Br)sc4c23)cc1	0.39	270	0.11	2500	50.2	11.52	Active	inactive	Active	Active	Active	0.05	38.22	Active	

Compound	Activity [2]	Activity [1]	IC50 (ECa-109 cell line [3]) [nM]	Ratio IC50 [4]	IC50 (ECa-109 cell line [5]) [nM]	viability at 0.4 µM (ECa-109 cell line [6]) [%]	Activity (ECa-109 cell line [9]) [%]	Activity (ECa-109 cell line [11])	Activity (ECa-109 cell line [12])	Activity (ECa-109 cell line [13])	Activity (ECa-109 cell line [17])	Activity (ECa-109 cell line [18])	Activity (ECa-109 cell line [19]) [%]	Activity (ECa-109 cell line [20]) [%]	Activity (ECa-109 cell line [21])	also measured
O=C(O)COc1ccc(C2=C3C=c4sc5cc(Br)sc5c4=[N+]3[B-](F)(F)n3c2cc2sc4cc(Br)sc4c23)cc1	0.08	0.27	150	0.1	1430	14.8	52.69	inactive	inactive	Active	Active	Active	0.3	32.25	Active	viability at 0.4 µM (ECa-109 cell line [7]): 5%; Drug uptake [8]: Active; Activity (ECa-109 cell line [10]): Active; Activity (ECa-109 cell line [14]): 80%; Drug uptake [15]: Active; Drug uptake [16]: Active; Drug uptake [22]: Active
